This assay deals with HCV 1b-377-neo replicon cells. Briefly: HCV replicon assay, HCV 1b-377-neo replicon cells (1b FRET). Particulars: HCV 1b-377-neo replicon cells, HCV 1b genotype, read-out: EC50 range against HCV 1b (Table 2, Range). The assay is classed as cell-based, Hepatitis C virus genotype 1b. In a few lines:
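FRET-based replicon assay in HCV 1b-377-neo cells, including a comparison line carrying the NS5A Y2065H mutation that confers resistance to a reference compound.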

Where two headings read alike, the source gives them in different places.

For `CCCN(CCC)[C@@H](C)C(=O)N1CCC[C@H]1c1ncc(-c2ccc(-c3ccc(-c4cnc([C@@H]5CCCN5C(=O)[C@@H](NC(=O)OC)C(C)C)[nH]4)cc3)cc2)[nH]1` [Example M84, methyl ((1S)-1-(((2S)-2-(5-(4′-(2-((2S)-1-(N,N-dipropyl-L-alanyl)-2-pyrrolidinyl)-1H-imidazol-5-yl)-4-biphenylyl)-1H-imidazol-2-yl)-1-pyrrolidinyl)carbonyl)-2-methylpropyl)carbamate], the EC50 (Hepatitis C virus) is 1 to 99 nM. As to `CC[C@H](C(=O)N1CCC[C@H]1c1ncc(-c2ccc(-c3ccc(-c4cnc([C@@H]5CCCN5C(=O)[C@@H](NC(=O)OC)C(C)C)[nH]4)cc3)cc2)[nH]1)N(CC)CC` [Example M85, methyl ((1S)-1-(((2S)-2-(5-(4′-(2-((2S)-1-((2R)-2-(diethylamino)butanoyl)-2-pyrrolidinyl)-1H-imidazol-5-yl)-4-biphenylyl)-1H-imidazol-2-yl)-1-pyrrolidinyl)carbonyl)-2-methylpropyl)carbamate], the EC50 (Hepatitis C virus) is 1 to 99 nM.

For the molecule `CC[C@@H](C(=O)N1CCC[C@H]1c1ncc(-c2ccc(-c3ccc(-c4cnc([C@@H]5CCCN5C(=O)[C@@H](NC(=O)OC)C(C)C)[nH]4)cc3)cc2)[nH]1)N(CC)CC` [Example M86, methyl ((1S)-1-(((2S)-2-(5-(4′-(2-((2S)-1-((2S)-2-(diethylamino)butanoyl)-2-pyrrolidinyl)-1H-imidazol-5-yl)-4-biphenylyl)-1H-imidazol-2-yl)-1-pyrrolidinyl)carbonyl)-2-methylpropyl)carbamate], the EC50 (Hepatitis C virus) fell in the range of 1 to 99 nM. For `COC(=O)N[C@H](C(=O)N1CCC[C@H]1c1ncc(-c2ccc(-c3ccc(-c4cnc([C@@H]5CCCN5C(=O)c5c[nH]cn5)[nH]4)cc3)cc2)[nH]1)C(C)C` [Example M87, methyl ((1S)-1-(((2S)-2-(5-(4′-(2-((2S)-1-(1H-imidazol-4-ylcarbonyl)-2-pyrrolidinyl)-1H-imidazol-5-yl)-4-biphenylyl)-1H-imidazol-2-yl)-1-pyrrolidinyl)carbonyl)-2-methylpropyl)carbamate], the EC50 (Hepatitis C virus) lay in the range of 1 to 99 nM.

On to `CCN(CC)[C@@H](COC)C(=O)N1CCC[C@H]1c1ncc(-c2ccc(-c3ccc(-c4cnc([C@@H]5CCCN5C(=O)[C@@H](NC(=O)OC)C(C)C)[nH]4)cc3)cc2)[nH]1` [Example M88, methyl ((1S)-1-(((2S)-2-(5-(4′-(2-((2S)-1-(N,N-diethyl-O-methyl-L-seryl)-2-pyrrolidinyl)-1H-imidazol-5-yl)-4-biphenylyl)-1H-imidazol-2-yl)-1-pyrrolidinyl)carbonyl)-2-methylpropyl)carbamate], for which the EC50 (Hepatitis C virus) lay in the range of 1 to 99 nM.

Take `CCN(CC)[C@H](CC(N)=O)C(=O)N1CCC[C@H]1c1ncc(-c2ccc(-c3ccc(-c4cnc([C@@H]5CCCN5C(=O)[C@@H](NC(=O)OC)C(C)C)[nH]4)cc3)cc2)[nH]1` [Example M89, methyl ((1S)-1-(((2S)-2-(5-(4′-(2-((2S)-1-(N^2,N^2-diethyl-D-asparaginyl)-2-pyrrolidinyl)-1H-imidazol-5-yl)-4-biphenylyl)-1H-imidazol-2-yl)-1-pyrrolidinyl)carbonyl)-2-methylpropyl)carbamate]: the EC50 (Hepatitis C virus) was 1 to 99 nM.

For the molecule `COC(=O)N[C@H](C(=O)N1CCC[C@H]1c1ncc(-c2ccc(-c3ccc(-c4cnc([C@H]5CCCN5C(=O)[C@H](NC(=O)OC)C(C)C)[nH]4)cc3)cc2)[nH]1)C(C)C` [Example M90, methyl ((1S)-1-(((2S)-2-(5-(4′-(2-((2R)-1-((2R)-2-((methoxycarbonyl)amino)-3-methylbutanoyl)-2-pyrrolidinyl)-1H-imidazol-5-yl)-4-biphenylyl)-1H-imidazol-2-yl)-1-pyrrolidinyl)carbonyl)-2-methylpropyl)carbamate], the EC50 (Hepatitis C virus) was 1000 to 10000 nM. As for `CCN(CC)[C@H](COC)C(=O)N1CCC[C@H]1c1ncc(-c2ccc(-c3ccc(-c4cnc([C@@H]5CCCN5C(=O)[C@@H](NC(=O)OC)C(C)C)[nH]4)cc3)cc2)[nH]1` [Example M91, methyl ((1S)-1-(((2S)-2-(5-(4′-(2-((2S)-1-(N,N-diethyl-O-methyl-D-seryl)-2-pyrrolidinyl)-1H-imidazol-5-yl)-4-biphenylyl)-1H-imidazol-2-yl)-1-pyrrolidinyl)carbonyl)-2-methylpropyl)carbamate], the EC50 (Hepatitis C virus) is 1 to 99 nM. `CCN(CC)[C@@H](C(=O)N1CCC[C@H]1c1ncc(-c2ccc(-c3ccc(-c4cnc([C@@H]5CCCN5C(=O)[C@@H](NC(=O)OC)C(C)C)[nH]4)cc3)cc2)[nH]1)C(C)(C)C` [Example M91x]: the EC50 was 1 to 99 nM.

`COC(=O)N[C@@H](CC(N)=O)C(=O)N1CCC[C@H]1c1ncc(-c2ccc(-c3ccc(-c4cnc([C@@H]5CCCN5C(=O)[C@@H](NC(=O)OC)C(C)C)[nH]4)cc3)cc2)[nH]1` [Example M91y, methyl ((1S)-3-amino-1-(((2S)-2-(5-(4′-(2-((2S)-1-((2S)-2-((methoxycarbonyl)amino)-3-methylbutanoyl)-2-pyrrolidinyl)-1H-imidazol-5-yl)-4-biphenylyl)-1H-imidazol-2-yl)-1-pyrrolidinyl)carbonyl)-3-oxopropyl)carbamate (non-preferred name)]: the EC50 was in the range of 100 to 999 nM. In the case of `COC(=O)N[C@@H](C)C(=O)N1CCC[C@H]1c1ncc(-c2ccc(-c3ccc(-c4cnc([C@@H]5CCCN5C(=O)c5ncco5)[nH]4)cc3)cc2)[nH]1` [Example M92, methyl ((1S)-1-methyl-2-((S)-2-(5-(4′-(2-((2S)-1-(1,3-oxazol-2-ylcarbonyl)-2-pyrrolidinyl)-1H-imidazol-5-yl)-4-biphenylyl)-1H-imidazol-2-yl)-1-pyrrolidinyl)-2-oxoethyl)carbamate], under “Hepatitis C virus”, the EC50 is 1000 to 10000 nM. With `COC(=O)N[C@@H](C)C(=O)N1CCC[C@H]1c1ncc(-c2ccc(-c3ccc(-c4cnc([C@@H]5CCCN5C(=O)[C@@H](NC(=O)OC)C5CC5)[nH]4)cc3)cc2)[nH]1` [Example M93, methyl ((1S)-1-cyclopropyl-2-((2S)-2-(5-(4′-(2-((2S)-1-(N-(methoxycarbonyl)-L-alanyl)-2-pyrrolidinyl)-1H-imidazol-5-yl)-4-biphenylyl)-1H-imidazol-2-yl)-1-pyrrolidinyl)-2-oxoethyl)carbamate], the EC50 (Hepatitis C virus) was in the range of 1 to 99 nM. In the case of `CCC[C@H](NC(=O)OC)C(=O)N1CCC[C@H]1c1ncc(-c2ccc(-c3ccc(-c4cnc([C@@H]5CCCN5C(=O)[C@H](C)NC(=O)OC)[nH]4)cc3)cc2)[nH]1` [Example M94, methyl ((1S)-1-(((2S)-2-(5-(4′-(2-((2S)-1-((2S)-2-((methoxycarbonyl)amino)propanoyl)-2-pyrrolidinyl)-1H-imidazol-5-yl)-4-biphenylyl)-1H-imidazol-2-yl)-1-pyrrolidinyl)carbonyl)butyl) carbamate], the EC50 fell in the range of 1 to 99 nM. Regarding `COC(=O)N[C@@H](C)C(=O)N1CCC[C@H]1c1ncc(-c2ccc(-c3ccc(-c4cnc([C@@H]5CCCN5C(=O)[C@@H](NC(=O)OC)C(C)(C)C)[nH]4)cc3)cc2)[nH]1` [Example M95, methyl ((1S)-1-(((2S)-2-(5-(4′-(2-((2S)-1-(N-(methoxycarbonyl)-L-alanyl)-2-pyrrolidinyl)-1H-imidazol-5-yl)-4-biphenylyl)-1H-imidazol-2-yl)-1-pyrrolidinyl)carbonyl)-2,2-dimethylpropyl)carbamate], under “Hepatitis C virus”, the half-maximal effective concentration (EC50) lay in the range of 1 to 99 nM. The same measure, in the same setting: the same measure for `CCN(CC)[C@H](C)C(=O)N1CCC[C@H]1c1ncc(-c2ccc(-c3ccc(-c4cnc([C@@H]5CCCN5C(=O)[C@H](C)NC(=O)OC)[nH]4)cc3)cc2)[nH]1` [Example M96, methyl ((1S)-2-((2S)-2-(5-(4′-(2-((2S)-1-(N,N-diethyl-D-alanyl)-2-pyrrolidinyl)-1H-imidazol-5-yl)-4-biphenylyl)-1H-imidazol-2-yl)-1-pyrrolidinyl)-1-methyl-2-oxoethyl)carbamate]: 100 to 999 nM. On the same count and under the same terms, the same measure for `COC(=O)N[C@@H](C)C(=O)N1CCC[C@H]1c1ncc(-c2ccc(-c3ccc(-c4cnc([C@@H]5CCCN5C(=O)C(c5ccccc5)N5C6CCC5CC6)[nH]4)cc3)cc2)[nH]1` (stereo partly drawn) [Example M97, methyl ((1S)-2-((2S)-2-(5-(4′-(2-((2S)-1-(7-azabicyclo[2.2.1]hept-7-yl(phenyl)acetyl)-2-pyrrolidinyl)-1H-imidazol-5-yl)-4-biphenylyl)-1H-imidazol-2-yl)-1-pyrrolidinyl)-1-methyl-2-oxoethyl)carbamate]: 1 to 99 nM; for `COC(=O)N[C@@H](C)C(=O)N1CCC[C@H]1c1ncc(-c2ccc(-c3ccc(-c4cnc([C@@H]5CCCN5C(=O)[C@H](O)c5ccccc5)[nH]4)cc3)cc2)[nH]1` [Example M98, methyl ((1S)-2-((2S)-2-(5-(4′-(2-((2S)-1-((2R)-2-hydroxy-2-phenylacetyl)-2-pyrrolidinyl)-1H-imidazol-5-yl)-4-biphenylyl)-1H-imidazol-2-yl)-1-pyrrolidinyl)-1-methyl-2-oxoethyl)carbamate]: 1 to 99 nM. With `CCN(C)[C@@H](C(=O)N1CCC[C@H]1c1ncc(-c2ccc(-c3ccc(-c4cnc([C@@H]5CCCN5C(=O)[C@H](C)NC(=O)OC)[nH]4)cc3)cc2)[nH]1)c1ccccc1` [Example M99, methyl ((1S)-2-((2S)-2-(5-(4′-(2-((2S)-1-((2R)-2-(ethyl(methyl)amino)-2-phenylacetyl)-2-pyrrolidinyl)-1H-imidazol-5-yl)-4-biphenylyl)-1H-imidazol-2-yl)-1-pyrrolidinyl)-1-methyl-2-oxoethyl)carbamate], the EC50 (Hepatitis C virus) was in the range of 1 to 99 nM. In the case of `COC[C@H](NC(=O)OC)C(=O)N1CCC[C@H]1c1ncc(-c2ccc(-c3ccc(-c4cnc([C@@H]5CCCN5C(=O)[C@H](C)NC(=O)OC)[nH]4)cc3)cc2)[nH]1` [Example M100, methyl ((1S)-2-((2S)-2-(5-(4′-(2-((2S)-1-(N-(methoxycarbonyl)-L-alanyl)-2-pyrrolidinyl)-1H-imidazol-5-yl)-4-biphenylyl)-1H-imidazol-2-yl)-1-pyrrolidinyl)-1-(methoxymethyl)-2-oxoethyl)carbamate], the half-maximal effective concentration (EC50) (Hepatitis C virus) is 1 to 99 nM.

For the origin of these results see patent US8574563B2 (Bristol-Myers Squibb Company, priority 2006, dated 2013).
